Like-named read-outs stand apart in the source and are kept apart here.
Tests used:
natalizumab [1] = experiment: Binding of purified phage clones to natalizumab-coated wells; settings: individually amplified and purified phage clones
Protocol: Mimetope peptides were selected from phage display libraries, some of which contain cysteines flanking the peptide mimetope sequence to increase stability of the peptide through disulfide bond formation. After three rounds of selection with multiple phage display libraries, individual phage plaques were isolated and sequenced.
All of these unique phage clones were individually amplified and purified, and their ability to specifically bind natalizumab-coated wells was assessed. […] Selected peptides derived from validated phage clones were chemically synthesized with an N-terminal acetyl modification (in some cases), C-terminal biotin modification via a terminal lysine (all peptides), and a disulfide bridge between cysteines 2 and 10 or cysteines 8 and 16 by a contract peptide manufacturer, as shown in Table 2.

natalizumab [2] = experiment: Anti-idiotype ELISA versus VERITOPE ELISA on heat-inactivated natalizumab; format: binding; settings: natalizumab heat-inactivated at 60° C.
natalizumab [3] = experiment: Competition ELISA between natalizumab-specific VERITOPE and anti-idiotype; format: binding; settings: capture reagent versus competitive reagent
Excerpt: In FIG. 11A natalizumab-specific VERITOPE™ is the capture reagent and anti-idiotype is the competitive reagent. In FIG. 11B, anti-idiotype is the capture reagent and natalizumab-specific VERITOPE™ is the competitive reagent.
FIGS. 10A and B illustrates a comparison of VERITOPE™ (FIG. 10A) and anti-idiotype (FIG. 10B) ELISA binding.

natalizumab [4] = settings: 1,000 or 10,000 fold molar excess of peptide; Jeko-1 cells
Excerpt: (§1) Jeko-1 cells, expressing CD49d, were used as a model.
as §1

complement = settings: in vitro; cited from earlier work
[5] = tested on: Jeko-1 cells, expressing CD49d; experiment: Flow cytometry: binding of heat-inactivated natalizumab to Jeko-1 cells; format: cell-based; settings: 60° C. for various periods of time; bivalent and arm-exchanged (bispecific) natalizumab
Fc gamma receptors = settings: like other IgG4 antibodies; cited from earlier work
integrin = target: T1, integrin (Homo sapiens, UniProt P13612); settings: at the end of 4 weeks, cited from earlier work
T1 construct: host or cells: cells of treated patients

natalizumab [6] = settings: human serum spiked with natalizumab, rituximab, atezolizumab, pembrolizumab, eculizumab
Protocol: Synthesized peptides were validated for specificity by using them as ELISA capture reagents on neutravidin-coated plates. Briefly, biotinylated peptides were coated on the wells at 100 ug/mL concentration in either tris buffered saline buffer (TBS) or water. […] Antibody that was captured by the peptides was subsequently detected using a goat anti-human IgG-Fc conjugated to horseradish peroxidase (HRP) combined with a colorimetric substrate. […] The percent of recovery was calculated as follow: calibrated concentration/nominal concentration×100.

IYAAYPPCPQNLSKFCRHSSSPGGGG [SEQ ID NO: 16]
specific binding to natalizumab-coated wells (natalizumab [1]): specific binding to natalizumab

QTLNHSWLHTFIGGG [SEQ ID NO: 13]
specific binding to natalizumab-coated wells (natalizumab [1]): specific binding to natalizumab

ACPSNPSKFCGGG [SEQ ID NO: 2]
specific binding to natalizumab-coated wells (natalizumab [1]): specific binding to natalizumab

ACPKNPNKFCGGG [SEQ ID NO: 4]
specific binding to natalizumab-coated wells (natalizumab [1]): specific binding to natalizumab

Ac-ACPMNESKFCGGG{Lys(Biotin)} with Cys2-Cys10 bridge [NTZ-01-Bio]
ability of capture reagent to distinguish active and inactive drug (natalizumab [2]): selectively distinguishes & quantifies active drug
region of natalizumab bound (natalizumab [3]): bind to the same region of natalizumab, most likely the antigen binding site
inhibition of natalizumab binding to its cell surface target (natalizumab [4]): can inhibit binding of natalizumab to its cell surface target

natalizumab
ability to fix complement (complement): lack of ability to fix complement
effect of heat-inactivation on binding to cellular target [5]: alters natalizumab binding to its cellular target
binding to Fc gamma receptors (Fc gamma receptors): reduced binding to Fc gamma receptors
integrin saturation by natalizumab (integrin; Hyams et al. 2007, crohn disease in adolescents): less than 40%
integrin saturation by natalizumab (integrin; Miller et al. 2003, relapsing multiple sclerosis): 80%

ACPKNPSKFCGGG{Lys(Biotin)} with Cys2-Cys10 bridge [NTZ-07-Bio]
selectivity for natalizumab over other therapeutic monoclonal antibodies (natalizumab [6]): selectively captures natalizumab in presence of other circulating human IgG

ACPMNESKFCGGG [SEQ ID NO: 1]
specific binding to natalizumab-coated wells (natalizumab [1]): specific binding to natalizumab

Source: patent publication US11680948B2 (ABREOS BIOSCIENCES, INC., priority 2016, dated 2023)
